By MIC50 is commonly meant an inhibitory concentration at the 50% level, which refers to growth in some studies and to a panel of isolates in others. The low end stands for higher susceptibility, the high end for lower susceptibility. The MIC90 is the lowest concentration that inhibits either 90% of growth or 90% of the strains tested, depending on the study. Low readings indicate higher susceptibility, high ones lower susceptibility.

Consider six compounds from patent publication US20080139626A1, “Novel Method” (priority 2005, published 2008).

In brackets after ≈: the same amount, converted by molar mass.

In assay [1] the test system is methicillin resistant S. aureus WCUH29. Kind of assay: murine groin abscess infection model, oral efficacy. The class given is in vivo. The following applies: mouse; for reduction of bacterial counts compared to non-treated controls: oral, p≦0.01. As to the method: Oral efficacy of Compound A was evaluated in a murine groin abscess infection model caused by a methicillin resistant S. aureus WCUH29. Animals were infected via subcutaneous injection into the groin with 0.5 mL of inoculum (approximately 5.7 log10 cfu/mouse). Groups of mice (n=5) received either Compound A (100, 300 or 600 mg/kg), moxifloxacin (100 mg/kg) or azithromycin (50 mg/kg).

In assay [2] the test system is S. pneumoniae (penicillin-resistant). Put plainly: MIC by broth microdilution. The class given is cell-based. Conditions: N=352; for MIC50 / MIC90: Streptococcus pneumoniae. As to the method: (§1) Whole-cell antimicrobial activity was determined by broth microdilution. Test compounds were dissolved in DMSO and diluted 1:10 in water to produce a 64 mcg/ml stock solution. Using a 96 well microtitre plate, a Microlab AT Plus 2 (Hamilton Co., Reno, Nev.) serially diluted 50 ul of the stock solution into an appropriate broth medium. Staphylococcal isolates were tested using cation adjusted Mueller Hinton broth. For S. pneumonaie testing, the Mueller Hinton broth was supplemented with 5% lysed horse blood and H. influenzae was tested with Haemophilus Test Medium. After the compounds were diluted, a 50 ul aliquot of the test isolate (˜1×10^6 cfu/ml) prepared in normal saline was added to each well of the microtitre plate. The final test concentrations ranged from 0.016-16 ug/mL. Inoculated plates were incubated at 35° C. in ambient air for 18 to 24 hours. The minimum inhibitory concentration (MIC) was determined as the lowest concentration of compound that inhibited visible growth.
(In general: In broth dilution the organism is exposed to a series of concentrations in liquid medium.)

Assay [3] has as its system S. pneumoniae (macrolide-resistant). Kind of assay: MIC by broth microdilution. The class given is cell-based. The following applies: N=552; for MIC50 / MIC90: Streptococcus pneumoniae. As to the method:
as §1

In assay [4] the test system is S. pyogenes (macrolide-resistant). Put plainly: MIC by broth microdilution. The class given is cell-based. Conditions: N=83; for MIC50 / MIC90: Streptococcus pyogenes. As to the method: as §1
The subject of assay [5] is S. aureus (methicillin-resistant). Kind of assay: MIC by broth microdilution. Conditions: N=51; for MIC50 / MIC90: Staphylococcus aureus. The class given is cell-based. As to the method:
as §1

The test system of assay [6] is S. pneumoniae (levofloxacin-resistant). Put plainly: MIC by broth microdilution. The class given is cell-based. The following applies: N=13; for MIC50 / MIC90: Streptococcus pneumoniae. As to the method: as §1
The next assay concerns H. influenzae BLNAR. Put plainly: MIC by broth microdilution. The class given is cell-based. Conditions: 5 isolates. As to the method: as §1
In assay [7] the test system is S. aureus VRSA (vanc MIC > 4 μg/mL). Put plainly: MIC by broth microdilution. The following applies: 2 isolates. The class given is cell-based. As to the method: as §1
In the next assay the test system is S. pneumoniae Eryth^R. Kind of assay: MIC by broth microdilution. Conditions: 5 isolates. The class given is cell-based. As to the method:
as §1

A further assay deals with S. aureus Meth^R/Ery^R. Kind of assay: MIC by broth microdilution. Conditions: 10 isolates. The class given is cell-based. As to the method:
as §1

A further assay concerns S. pneumoniae Pen^R. Kind of assay: MIC by broth microdilution. The class given is cell-based. Conditions: 5 isolates. As to the method: as §1
For another assay, the system named is H. influenzae ClarR. Kind of assay: MIC by broth microdilution. The class given is cell-based. The following applies: 5 isolates. As to the method:
as §1

The subject of another assay is S. aureus Tetracycline^R. Put plainly: MIC by broth microdilution. The class given is cell-based. Conditions: 6 isolates. As to the method: as §1
In another assay the test system is S. pneumoniae Cipro^R. Put plainly: MIC by broth microdilution. The following applies: 5 isolates. The class given is cell-based. As to the method: as §1
The test system of the next assay is S. aureus Linezolid^R. Put plainly: MIC by broth microdilution. The following applies: 3 isolates. The class given is cell-based. As to the method:
as §1

In a further assay the test system is S. aureus Mupirocin^R. Kind of assay: MIC by broth microdilution. Conditions: 8 isolates. The class given is cell-based. As to the method: as §1
The subject of assay [8] is S. aureus VISA (vanc. MIC 4 μg/mL). Put plainly: MIC by broth microdilution. Conditions: 4 isolates. The class given is cell-based. As to the method:
as §1

Another assay concerns S. epidermidis Meth^R. Kind of assay: MIC by broth microdilution. The class given is cell-based. The following applies: 6 isolates. As to the method:
as §1

Another assay has as its system S. aureus Ketek^R. Put plainly: MIC by broth microdilution. The class given is cell-based. Conditions: 4 isolates. As to the method: as §1

Regarding `CC[C@H]1OC(=O)[C@H](C)[C@@H](O[C@H]2C[C@@](C)(OC)[C@@H](O)[C@H](C)O2)[C@H](C)[C@@H](O[C@@H]2O[C@H](C)C[C@H](N(C)C)[C@H]2O)[C@](C)(O)C[C@@H](C)CN(C)[C@H](C)[C@@H](O)[C@]1(C)O` [Azithromycin], in assay [1] (50 mg/kg), the “reduction of bacterial counts” value came to 3.4 log10 cfu/abscess. The MIC50 is over 16 µg/mL in assay [2]; over 16 µg/mL in assay [3]; 16 µg/mL (≈ 21.4 µM) in assay [4]; over 16 µg/mL in [5]; 16 µg/mL (≈ 21.4 µM) in [6]. Also, the MIC90 in assay [2], in [3], in assay [4], in [5] and in assay [6] was over 16 µg/mL each time.
Regarding `C=C[C@]1(C)C[C@@H](OC(=O)NC(=O)c2cnc(OC)c(N)c2)[C@]2(C)C(C)CC[C@]3(C[C@H](O)C(=O)[C@H]32)[C@@H](C)[C@@H]1O` (stereo partly shown) [Compound A], the “reduction of bacterial counts compared to non-treated controls” value in assay [1] (300 mg/kg) was determined as 3.6 log10 cfu/abscess; in [1] (600 mg/kg), 4.3 log10 cfu/abscess. Also, the “MIC Range” value in the assay on H. influenzae BLNAR was 2 µg/mL (≈ 3.78 µM); in assay [2] it was 0.03 to 1 µg/mL; in [7], 0.5 µg/mL (≈ 0.944 µM); against S. pneumoniae Eryth^R, 0.125 to 0.25 µg/mL; against S. aureus Meth^R/Ery^R it was 0.5 to 2 µg/mL; in [3], 0.015 to 1 µg/mL. In addition, the “MIC Range” value against S. pneumoniae Pen^R was 0.06 to 0.25 µg/mL; against H. influenzae ClarR, 4 to 8 µg/mL; in assay [4] it was 0.12 to 0.25 µg/mL; in the assay with S. aureus Tetracycline^R, 0.5 to 2 µg/mL; with S. pneumoniae Cipro^R it was 0.125 to 0.25 µg/mL; with S. aureus Linezolid^R, 2 µg/mL (≈ 3.78 µM). For the same compound, the “MIC Range” value in assay [5] is 0.25 to 2 µg/mL; with S. aureus Mupirocin^R, 0.25 to 1 µg/mL; in assay [8], 0.5 to 4 µg/mL; against S. epidermidis Meth^R it was 0.25 to 1 µg/mL; with S. aureus Ketek^R, 0.5 to 4 µg/mL; in assay [6], 0.12 to 0.5 µg/mL. Further, the MIC50 is 0.25 µg/mL (≈ 0.472 µM) in assay [2]; 0.25 µg/mL (≈ 0.472 µM) in assay [3]; 0.25 µg/mL (≈ 0.472 µM) in [4]; 1 µg/mL (≈ 1.89 µM) in assay [5]; 0.25 µg/mL (≈ 0.472 µM) in assay [6]. The MIC90 in assay [2] was 0.25 µg/mL (≈ 0.472 µM); in [3], 0.25 µg/mL (≈ 0.472 µM); in assay [4], 0.25 µg/mL (≈ 0.472 µM); in [5], 1 µg/mL (≈ 1.89 µM); in assay [6], 0.5 µg/mL (≈ 0.944 µM).
`CO/N=C(\C(=O)N[C@@H]1C(=O)N2C(C(=O)O)=C(COC(N)=O)CS[C@H]12)c1ccco1` [Cefuroxime]: the “MIC Range” value is 1 to 32 µg/mL in assay [2], “≦0.015-32 μg/mL” in assay [3], “≦0.015-0.12 μg/mL” in assay [4] and “≦0.015-8 μg/mL” in assay [6]. In addition, the MIC50 in assay [2] was 4 µg/mL (≈ 9.43 µM); in [3], 4 µg/mL (≈ 9.43 µM); in assay [4], at most 0.015 µg/mL; in assay [5], 4 µg/mL (≈ 9.43 µM); in [6] it was 2 µg/mL (≈ 4.71 µM). Moreover, the MIC90 was 8 µg/mL (≈ 18.9 µM) in assay [2]; 8 µg/mL (≈ 18.9 µM) in assay [3]; at most 0.015 µg/mL in assay [4]; over 32 µg/mL in [5]; 8 µg/mL (≈ 18.9 µM) in assay [6].
For `COc1c(N2C[C@@H]3CCCN[C@@H]3C2)c(F)cc2c(=O)c(C(=O)O)cn(C3CC3)c12` [Moxifloxacin], the “reduction of bacterial counts” value in assay [1] (100 mg/kg) stood at 4.6 log10 cfu/abscess. The MIC50 in assay [2] amounted to 0.12 µg/mL (≈ 0.299 µM); in assay [3], 0.12 µg/mL (≈ 0.299 µM); in assay [4] it was 0.12 µg/mL (≈ 0.299 µM); in [5], 0.12 µg/mL (≈ 0.299 µM); in assay [6] it was 4 µg/mL (≈ 9.96 µM). Also, the MIC90 stood at 0.25 µg/mL (≈ 0.623 µM) in [2]; 0.25 µg/mL (≈ 0.623 µM) in assay [3]; 0.25 µg/mL (≈ 0.623 µM) in [4]; 4 µg/mL (≈ 9.96 µM) in [5]; 8 µg/mL (≈ 19.9 µM) in [6]. In addition, the “MIC Range” value in [4] lay in the range of 0.06 to 0.5 µg/mL.
As to `C[C@H]1COc2c(N3CCN(C)CC3)c(F)cc3c(=O)c(C(=O)O)cn1c23` [Levofloxacin], the MIC50 in [2] was 1 µg/mL (≈ 2.77 µM); in assay [3] it was 1 µg/mL (≈ 2.77 µM); in [4], 0.5 µg/mL (≈ 1.38 µM); in [5], 0.5 µg/mL (≈ 1.38 µM); in [6] it was over 8 µg/mL. The MIC90 was 1 µg/mL (≈ 2.77 µM) in assay [2]; 2 µg/mL (≈ 5.53 µM) in assay [3]; 1 µg/mL (≈ 2.77 µM) in [4]; over 8 µg/mL in [5]; over 8 µg/mL in assay [6]. Moreover, the “MIC Range” value in [4] lay in the range of 0.12 to 2 µg/mL.
As for `CC[C@H]1OC(=O)[C@H](C)C(=O)[C@H](C)[C@@H](O[C@@H]2O[C@H](C)C[C@H](N(C)C)[C@H]2O)[C@](C)(OC)C[C@@H](C)C(=O)[C@H](C)[C@H]2N(CCCCn3cnc(-c4cccnc4)c3)C(=O)O[C@]12C` [Telithromycin], the “MIC Range” value is “≦0.002-16 μg/mL” in assay [2], “≦0.002-16 μg/mL” in [3] and “≦0.002-2 μg/mL” in assay [6]. In addition, the MIC50 in [2] was determined as 0.25 µg/mL (≈ 0.308 µM); in [3], 0.25 µg/mL (≈ 0.308 µM); in assay [4], 0.03 µg/mL (≈ 0.0369 µM); in assay [5], 0.25 µg/mL (≈ 0.308 µM); in assay [6], 0.12 µg/mL (≈ 0.148 µM). Moreover, the MIC90 in assay [2] was 2 µg/mL (≈ 2.46 µM); in [3] it was 2 µg/mL (≈ 2.46 µM); in assay [4], 8 µg/mL (≈ 9.85 µM); in assay [5], over 16 µg/mL; in assay [6] it was 0.5 µg/mL (≈ 0.616 µM).
